# Laboratory results reported in patent US11891634B2, “PDE5A destabilizing domains” (The Board of Trustees of the Leland Stanford Junior …, priority 2017, dated 2024).
# Experiments:
# [1] = test system: NIH3T3 cells expressing AcGFP-PDE5A fusions; experiment: FACS analysis of C-terminal PDE5A mutants (AcGFP-PDE5A fusions), Sildenafil vs vehicle; type: cell-based, mouse; details: Table 2, 24 hours; for Mean Fluorescence intensity: NIH3T3; for Stabilization ratio: fold change in GFP intensity, Sildenafil 10 μM vs vehicle alone
# Procedure: (§1) The NIH3T3 cell line was cultured in DMEM supplemented with 10% heat-inactivated donor bovine serum (Invitrogen), 2 mM glutamine, 100 U/ml penicillin and 100 μg/ml streptomycin.
# (§2) The ΦNX ecotropic packaging cell line was transfected using standard Lipofectamine 2000 protocols. Viral supernatants were harvested 48 hours, post transfection, filtered and concentrated 10-fold using Amicon Ultra centrifugal filter device with a 100kDa cutoff. NIH 3T3 cells were incubated with concentrated retroviral supernatants supplemented with 4 μg/ml polybrene for 4 hours at 37° C. Cells were washed once with PBS and cultured in growth media for 24-36 hours to allow for viral integration.
# (§3) The transduced NIH3T3 cells were subjected to analysis using fluorescence-activated cell sorting (FACS) to screen the libraries of PDE5A mutants. 24 hours prior to analysis, transduced NIH3T3 cells were plated at 1×10^5 cells per well of a 12-well plate. Cells were removed from the plate using PBS and 2 mM EDTA, washed once with PBS, and resuspended in 200 μL, PBS. FACS analysis was performed on instruments at the Stanford Shared FACS Facility with 10,000 events represented.
# (§4) To identify destabilizing domains that are responsive to the PDE5A ligand, Sildenafil, a cell-based screening assay was employed in which the fluorescence of green fluorescent protein derived from Aequorea coerulescens (AcGFP) served as an indicator of PDE5A stability. A library based on the PDE5A catalytic domain sequences was generated using error prone PCR and then cloned in-frame in front of AcGFP. A Moloney murine leukemia retroviral expression was used to stably integrate this library of PDE5A-AcGFP fusions into NIH-3T3 fibroblasts, and the transduced cells were subjected to three rounds of sorting using flow cytometry. In the first round, cells were treated with 10 μM of PDE5A ligand, Sildenafil for 16-24 before analysis. Fluorescent cells were collected and further cultured in the absence of ligand for 60 hours.
# (§5) A library of AcGFP-PDE5A fusions i.e., C-terminal PDE5A mutants was screened using the cell-based screening assay described previously to identify C-terminal destabilizing domains. […] Identified candidates were subjected to further characterization by FACS. Cells were split into two treatment groups and incubated with either Sildenafil (10 μM) or vehicle alone for 24 hours. Cells that were mock transduced or transduced with the wild-type PDE5A construct were also included in the analysis. The stabilization ratio was calculated as the fold change in GFP intensity of the AcGFP-PDE5A construct in Sildenafil treated sample compared to vehicle alone treated sample. The results are presented in Table 2 where the C terminal PDE5A mutants are denoted as PDE5AC.
# Residue D764 was identified as a mutational hotspot from sequence analysis. PDE5AC (#41) was engineered with either D764N or D764G mutation via site-directed mutagenesis. PDE5AC (#41) +D764N comprises the amino acid sequence of SEQ ID NO. 53 (encoded by SEQ ID NO. 54) and PDE5AC (#41) +D764G comprises the amino acid sequence of SEQ ID NO. 55 (encoded by SEQ ID NO. 56). AcGFP-PDE5A variants were evaluated for Sildenafil dependent stabilization via FACS as described previously. Results from FACS analysis are presented in Table 4 where the C terminal PDE5A mutants are denoted as PDE5AC. The stabilization ratio was calculated as the fold change in GFP intensity of the AcGFP-PDE5A construct in Sildenafil treated sample compared to vehicle alone treated sample.
# Extended versions of human PDE5A that included residues in addition to catalytic domain (residues 535-860 of SEQ ID NO. 1) with Q589R polymorphism (SEQ ID NO. 11) were evaluated for use as C-terminal destabilizing domains. Three extended PDE5A sequences were tested that consisted of residues 535-875 of SEQ ID NO. 1 with Q589R polymorphism (SEQ ID NO. 13); residues 466-875 of SEQ ID NO. 1 with Q589R polymorphism (SEQ ID NO. 15); or residues 420-875 of SEQ ID NO. […]
# PDE5A-AcGFP fusions = experiment: FACS analysis of N-terminal PDE5A mutants (PDE5A-AcGFP fusions), Sildenafil vs vehicle; type: cell-based, mouse; details: 24 hours; for Stabilization ratio: Sildenafil 20 μM vs vehicle alone; for Mean Fluorescence Intensity (MFI) Sildenafil (20 μM) / Mean Fluorescence Intensity (MFI) Vehicle control: NIH3T3; for Mean Fluorescence Intensity (MFI) Vehicle control: vehicle alone
# Procedure: as §1, §2, §3, §4
# as §5, with “PDE5A-AcGFP” for “AcGFP-PDE5A”, “N-terminal” for “C-terminal”, “mutants,” for “mutants”, “(20” for “(10”, “The results are presented in Table 6 where the N terminal PDE5A mutants are denoted as PDE5AN. The” for “The”, “sample.” for “sample. The results are presented in Table 2 where the C terminal PDE5A mutants are denoted as PDE5AC.”
# [2] = target: T1, HCT 116 cells transduced with the PDE5A DD derived GFP constructs (Homo sapiens, UniProt O76074, K633E/K795E/K852E/Q589R/T712S); experiment: Response to Tadalafil, GFP expression by FACS in HCT116; type: cell-based; details: 48 hrs, HCT116
# T1 construct: Mutations were created in PDE5A (535-860) catalytic domain using site directed mutagenesis; expressed in transfected cells; host or cells: HCT116 (lentiviral transduction, pELNS vector, sorted on mCherry)
# Summary of the method: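 HCT116 cells stably transduced (mCherry-sorted) with lentiviral PDE5A DD–AcGFP constructs, exposed to DMSO or Tadalafil 0.01–100 μM for 48 hrs. GFP mean fluorescence by FACS; stabilization ratio = ligand vs no-ligand signal, basal expression = no-ligand signal vs parental autofluorescence.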
# [3] = Sildenafil (10 μM) −, vehicle alone
Substance,Mean Fluorescence intensity ([1]; Sildenafil (10 μM) +),"Mean Fluorescence intensity [1, 3]",Stabilization ratio [1],Stabilization ratio (PDE5A-AcGFP fusions),Mean Fluorescence Intensity (MFI) Sildenafil (20 μM) (PDE5A-AcGFP fusions),Mean Fluorescence Intensity (MFI) Vehicle control (PDE5A-AcGFP fusions),Tadalafil concentrations at which stabilization ratios greater than 1 were obtained [2]
"PDE5AC (#69): AcGFP fused to C-terminal DD 535-860 of PDE5A (Q589R, N636S, D687A, D764N, S815C), SEQ ID NO. 30",6365,1126,5.6,,,,
"PDE5AC (#25): AcGFP fused to C-terminal DD 535-860 of PDE5A (Q541R, F559L, Q589R, H678R, I824T), SEQ ID NO. 35",2340,1452,1.6,,,,
"PDE5AC (#43): AcGFP fused to C-terminal DD 535-860 of PDE5A (Q589R, N609H, Y676N, A762S), SEQ ID NO. 29",5518,1017,5.4,,,,
"PDE5AN (#53): N-terminal DD 535-860 of PDE5A (E536G, Q589R, C839S), SEQ ID NO. 67, fused to AcGFP",,,,2.62,4440,1697,
"PDE5AC (#13): AcGFP fused to C-terminal DD 535-860 of PDE5A (Q589R, Y676D, L738H), SEQ ID NO. 24",6284,1076,5.8,,,,
"PDE5AN (#3): N-terminal DD 535-860 of PDE5A (Q589R, K633E, T712S, K852E, K795E), SEQ ID NO. 66, fused to AcGFP",,,,3.97,3335,839,greater than 0.41 μM
"PDE5AC (#28): AcGFP fused to C-terminal DD 535-860 of PDE5A (Q589R, K591E, N609H, D764V), SEQ ID NO. 25",6055,1382,4.4,,,,
